The assay has as its system hTERT and c-myc. Kind of assay: Western blot and RT-PCR of hTERT and c-myc in BEL-7404 cells. The assay is classed as cell-based, human. Conditions: BEL-7404, 10 μM, 24 h, compared to complexes 4 and 5. As to the method: To further investigate the mechanism(s) how chiral platinum(II) complexes regulate telomerase activity, two genes (hTERT and c-myc) critically associated with telomerase activation were investigated. BEL-7404 cells were treated with chiral platinum(II) complexes 4–6 at 10 μM for 24 h, and then western blot and RT-PCR were performed to exam the expression of hTERT and c-myc at mRNA and protein levels. […] We further generated a GFP reporter system linked with c-myc or hTRET promotor which bears G4 DNA sequence. The reporter plasmids were transfected into BEL-7404 cells, and then the cells were treated with 10 μM chiral platinum(II) complexes for 24 h.
Apoptosis analysis c-myc antibody, or anti-β-actin primary antibody and the Apoptosis was detected by flow cytometric analysis corresponding secondary antibody were used to detect of annexin V staining. […] Then, cells were incubated with annexin V-FITC and PI for 1.0 h at Staining for SA-β-Gal activity was carried out room temperature in the dark and immediately analyzed according to Moore and Chen reports. […] The data are presented as biparametric After the long-term incubation with complexes 4–6, the dot plots showing PI red fluorescence vs annexin V-FITC growth medium was aspirated and the BEL-7404 cells green fluorescence. were fixed in 2% formaldehyde/0.2% glutaraldehyde for 15.0 min at room temperature. […]
A general note: Immunoblotting shows a protein as a band on a membrane.

Consider cis-[PtCl2(S-(–)-FOA)] [complex 6], for which the “expression of hTERT and c-myc at mRNA and protein levels” value is listed as “significantly attenuate”.

The record behind these values is paper PMC5617480 (Oncotarget, 2017).
